Measurements taken from patent US20230293530A1, “AGENTS FOR SENSITIZING SOLID TUMORS TO TREATMENT” (Yeda Research and Development Co. Ltd., priority 2020, published 2023).

Experiments:
[1] = test system: LMP-7 immunoproteasome; assay: Western blot for LMP-7 immunoproteasome in 4T1 cells; type: cell-based, murine; conditions: 300 µM mizoribine, 24 hours
Text: C) ASS1 mRNA expression levels and NDNO scores are associated with non-response to anti-PD1 therapy in non-small cell lung cancer (NSCLC) (7 responders and 14 nonresponders). D) Proteomic-based NDNO scores associate with lower hydrophobicity of peptide repertoire (Wilcoxon ranksum P<0.05) in a (CPTAC3) lung adenocarcinoma cohort. NDNO scores were used to determine the top tertile (red; n=36) and bottom tertile (blue; n=36); Proteomic NDNO scores denote the ratio of NNDO scores of the tumor vs the matched normal sample (Methods). Hydrophobicity scores were determined by R library Peptides using the metric from Janin et al^2, where the hydrophobicity of each sample’s peptide repertoire denotes the mean hydrophobicity of all its peptides (Methods). E) 4T1 breast cancer cells were treated with 300 µM mizoribine for 24 hours and analysed by western for LMP-7 immunoproteasome (Left panel). Quantification of the western is shown on the right panel. […] Tumor size was calliper-measured on the designated days (upper panel) and at sacrifice on day 14 (lower panel, p = 0.0476 using student’s t-test). […] Human IFNγ was measured using ELISA in wells containing cultured CD8+T-cells and PDX explants from two patients (Pat#1, LEP 19 and Pat#2, LEP 20) with metastatic NSCLC on responsive to anti-PD1. […]

[2] = test system: 4T1 cells; assay: Cell viability by crystal violet staining, 4T1; type: cell-based, murine; conditions: 300 µM mizoribine, 24 h
Description: A) Purine/pyrimidine ratio is increased upon nutrient deprivation in […] colon cancer cells. MC38 cells were grown in either regular medium or in medium without glucose for 24 h. Nucleotide levels were measured by LC-MS. Purine/pyrimidine ratio was calculated by dividing (AMP+GMP) AUC by (UMP+CMP) AUC. B) 4T1 cells with and without shASS1 were grown in glucose free medium either supplemented or not with 10 mM L-Name for 48 hrs. Nucleotide levels were measured by LC-MS. Purine/pyrimidine ratio was calculated by dividing the sum levels of (AMP+GMP) by the sum levels of (UMP+CMP+TMP). […] MC38 cells were grown either with or without 300 µM mizoribine for 24 h. Nucleotide levels were measured by LC-MS. […] 4T1 (left panel) and MC38 cells (right panel) were grown for 24 h with or without 300 µM mizoribine. Cell viability was measured by crystal violet staining. Each experiment was conducted with biological and technical replicates and repeated at least three times. All error bars represent SER. * P<0.05, ** denotes P<0.01, ***P<0.001.

In the case of `NC(=O)c1ncn([C@@H]2O[C@H](CO)[C@@H](O)[C@H]2O)c1O` [Mizoribine, mizoribine], the “immunoproteasome LMP-7 expression” value [1] is reported as “higher immunoproteasome LMP-7 expression” and the “cancer cell proliferation (cell viability, crystal violet)” value [2] is reported as “restricts ASS1-overexpressing cancer cell proliferation”.
